Data published in the supplement of paper PMC10307832.

Assays:
Assay in all cases: relative viability (nuclei count vs DMSO), 5 days (fraction); higher = more cells survive
[1] = compound: CCOC(=O)CCNc1cc(N2CCc3ccccc3CC2)nc(-c2ccccn2)n1 [GSK-J4] + NC(=O)Nc1cc(-c2cccc(F)c2)sc1C(=O)N[C@H]1CCCNC1 [AZD7762] (partner 0.2 µM)
Outline: (§1)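 Lung cancer cell lines were pin-tool dosed in 1536-well plates on the day after seeding, with either a lone drug or a fixed anchor-drug dose plus five library-drug doses (not always all listed) in √10 steps. Nuclei were counted on 4× images after 5 days. Relative viability is the ratio of treated-well to vehicle-well nuclei counts, with each value a median of duplicate plates.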

[2] = compound: CN1CCC(CC1)OC2=CC(=C(C=C2)NC3=NC=C4C(=N3)N(C(=O)N4C)C5CCCC5)OC [AZ3146] + Nc1ncn([C@H]2C[C@H](O)[C@@H](CO)O2)c(=O)n1 [Decitabine] (partner 2 µM)
Outline: as §1

[3] = compound: CCOC(=O)CCNc1cc(N2CCc3ccccc3CC2)nc(-c2ccccn2)n1 [GSK-J4] + CC(=O)c1c(C)c2cnc(Nc3ccc(N4CCNCC4)cn3)nc2n(C2CCCC2)c1=O [Palbociclib] (partner 0.5 µM)
Outline: as §1

[4] = compound: CN1CCC(CC1)OC2=CC(=C(C=C2)NC3=NC=C4C(=N3)N(C(=O)N4C)C5CCCC5)OC [AZ3146] + C[C@@H](Oc1cc(-c2cnn(C3CCNCC3)c2)cnc1N)c1c(Cl)ccc(F)c1Cl [Crizotinib] (partner 1 µM)
Outline: as §1

Cell Line	relative viability ([1]; first compound 0.5 µM)	relative viability ([1]; first compound 1.581 µM)	relative viability ([1]; first compound 15.81 µM)	relative viability ([1]; first compound 50 µM)	relative viability ([2]; first compound 0.08 µM)	relative viability ([2]; first compound 0.253 µM)	relative viability ([2]; first compound 0.8 µM)	relative viability ([2]; first compound 2.53 µM)	relative viability ([2]; first compound 8 µM)	relative viability ([3]; first compound 0.5 µM)	relative viability ([3]; first compound 1.581 µM)	relative viability ([3]; first compound 15.81 µM)	relative viability ([3]; first compound 50 µM)	relative viability ([4]; first compound 0.08 µM)	relative viability ([4]; first compound 0.253 µM)	relative viability ([4]; first compound 0.8 µM)	relative viability ([4]; first compound 2.53 µM)	relative viability ([4]; first compound 8 µM)	relative viability ([1]; first compound 5 µM)	relative viability ([3]; first compound 5 µM)
NCI-H522	0.909	0.759	0.637	0.603	0.732	0.589	0.683	0.616	0.714	1.22	0.953	0.976	0.622	–	–	–	–	–	–	–
HCC-366	0.325	0.258	0.226	0.312	0.342	0.39	0.296	0.352	0.321	0.357	0.322	0.357	0.354	0.514	0.695	0.246	0.192	0.0532	–	–
A-427	0.684	0.441	0.576	0.328	0.511	0.529	0.528	0.56	0.401	0.507	0.439	0.511	0.443	0.877	0.927	0.869	0.804	0.444	–	–
NCI-H2347	0.779	0.783	0.724	0.591	0.588	0.67	0.593	0.601	0.631	0.448	0.374	0.436	0.419	0.522	0.677	0.822	0.647	0.699	0.781	0.411
NCI-H1792	0.771	0.534	0.674	0.457	0.399	0.503	0.54	0.641	0.669	0.622	–	0.569	0.668	0.834	1.07	1.01	0.797	1	0.325	0.773
SK-LU-1	–	–	–	–	0.558	0.684	0.552	0.647	0.692	0.362	0.421	0.336	0.295	1.1	1.11	1.03	0.985	0.471	–	0.346
RERF-LC-KJ	0.916	0.825	0.821	0.672	0.69	0.704	0.731	0.73	0.381	1.07	0.954	1.04	0.728	0.794	0.864	0.816	0.864	0.66	0.812	1.13
NCI-H1993	0.805	0.683	0.604	0.435	0.699	0.54	0.561	0.588	0.594	0.588	0.623	0.542	0.481	0.876	0.847	0.813	0.879	0.84	1.04	0.606
NCI-H1734	0.513	0.767	0.513	0.423	0.4	0.499	0.429	0.5	0.484	0.332	0.318	0.335	0.281	0.678	0.752	0.655	0.697	0.598	0.333	0.346
HCC-44	0.95	0.939	1.11	1.05	0.912	0.889	1.03	0.943	0.958	0.933	0.916	0.979	1.03	0.779	0.791	0.724	0.796	0.668	0.962	0.989
NCI-H1944	0.492	0.64	0.414	0.427	0.329	0.44	0.429	0.445	0.468	0.378	0.334	0.274	0.342	–	0.977	1.09	1.13	1.1	–	–
HCC-78	0.686	0.702	0.485	0.583	–	0.746	0.623	0.744	0.728	0.498	–	0.435	0.486	–	0.326	0.329	0.387	0.361	0.874	0.48
NCI-H838	0.971	0.681	0.874	0.789	0.46	0.474	0.422	0.501	0.281	0.222	0.204	0.194	0.226	0.797	0.798	0.656	0.613	0.281	0.76	0.158
SW 1573	–	–	–	–	0.509	0.605	0.542	0.397	0.162	0.38	0.336	0.382	0.237	0.758	0.843	0.892	0.891	0.531	–	0.347
ChaGo-K-1	0.873	–	0.912	0.766	0.509	0.502	0.509	0.531	0.501	0.934	–	0.889	0.845	1	1.26	0.951	0.593	0.328	0.774	0.967
LCLC-97TM1	0.197	0.23	0.209	0.337	0.209	0.254	0.225	0.222	0.248	0.211	0.216	0.211	0.272	–	–	0.485	0.352	0.304	0.384	0.225
COR-L 105	–	–	–	–	0.647	0.55	0.632	0.622	0.549	0.428	–	0.415	0.396	0.756	0.745	0.508	0.518	0.332	–	0.342
NCI-H1666	0.889	0.807	0.768	0.573	0.666	0.706	0.679	0.673	0.711	0.685	0.561	0.627	0.708	1.08	1.01	1.08	0.934	0.778	0.688	0.59
CAL-12T	0.705	0.646	0.649	0.675	–	–	–	–	–	0.46	0.342	0.482	0.493	0.507	0.72	0.595	0.733	0.247	0.557	0.442
EPLC-272H	0.206	0.23	0.138	0.147	0.375	0.379	0.396	0.368	0.418	0.342	0.327	0.309	0.33	0.78	0.843	1.02	1.14	0.975	0.162	0.371
NCI-H1299	–	–	–	–	–	–	–	–	–	–	–	–	–	0.964	0.961	0.952	0.636	0.511	–	–
ABC-1	0.784	0.784	0.666	0.445	1.02	1.04	1.33	1.05	1.09	0.599	0.589	0.691	0.432	0.852	1.38	1.03	1.07	0.452	0.955	0.605

Cell Line	relative viability ([1]; first compound 0.5 µM)	relative viability ([1]; first compound 1.581 µM)	relative viability ([1]; first compound 15.81 µM)	relative viability ([1]; first compound 50 µM)	relative viability ([2]; first compound 0.08 µM)	relative viability ([2]; first compound 0.253 µM)	relative viability ([2]; first compound 0.8 µM)	relative viability ([2]; first compound 2.53 µM)	relative viability ([2]; first compound 8 µM)	relative viability ([3]; first compound 0.5 µM)	relative viability ([3]; first compound 1.581 µM)	relative viability ([3]; first compound 15.81 µM)	relative viability ([3]; first compound 50 µM)	relative viability ([4]; first compound 0.08 µM)	relative viability ([4]; first compound 0.253 µM)	relative viability ([4]; first compound 0.8 µM)	relative viability ([4]; first compound 2.53 µM)	relative viability ([4]; first compound 8 µM)	relative viability ([1]; first compound 5 µM)	relative viability ([3]; first compound 5 µM)
NCI-H358	0.598	0.576	0.606	0.44	0.201	0.225	0.182	0.207	0.159	0.139	–	0.104	0.138	0.587	0.616	0.425	0.398	0.177	0.692	0.154
NCI-H2023	–	–	–	–	0.235	0.203	0.246	0.227	0.13	0.317	0.371	0.41	0.435	0.592	0.636	0.485	0.407	0.449	–	0.385
NCI-H2228	–	–	–	–	–	–	–	–	–	0.672	0.765	0.784	0.722	0.537	0.503	0.423	0.396	0.369	–	0.817
NCI-H1650	–	–	–	–	0.377	0.44	0.366	0.44	0.367	0.34	0.287	0.371	0.283	0.933	0.95	0.84	0.95	0.489	–	0.353
NCI-H2342	0.624	0.525	0.557	0.362	0.653	0.681	0.756	0.683	0.714	0.646	0.48	0.507	0.678	–	–	–	–	–	0.531	0.596
EBC-1	–	–	–	–	–	–	–	–	–	–	–	–	–	0.192	0.213	0.173	0.194	0.166	–	–
Calu-6	–	–	–	–	–	–	–	–	–	–	–	–	–	0.715	0.763	0.701	0.465	0.256	–	–
COR-L23	–	–	–	–	0.377	0.461	0.418	0.467	0.369	0.274	0.233	0.251	0.258	0.506	0.649	0.622	0.502	0.407	–	–
NCI-H661	–	–	–	–	0.541	0.514	0.607	0.555	0.448	0.41	0.38	0.409	0.361	0.979	1.14	1.03	1.11	0.814	–	0.388
NCI-H1793	0.595	0.324	0.151	0.156	0.252	0.523	0.456	0.283	0.488	0.298	0.264	0.204	0.162	–	–	–	–	–	0.215	0.28
A549	–	–	–	–	0.318	0.284	0.332	0.316	0.205	–	–	–	–	0.655	0.777	0.453	0.0847	0.0598	–	–
NCI-H596	1.18	1.12	0.926	1.12	0.91	0.92	1.2	1.3	1.03	–	–	–	–	1.02	0.947	1.02	1.02	1.01	1.01	–
SK-MES-1	–	–	–	–	0.364	0.397	0.359	0.477	0.344	0.314	0.29	0.283	0.313	0.936	1.03	0.97	1.12	1.05	–	0.319
NCI-H1395	0.403	0.415	0.351	0.413	0.642	0.746	–	0.864	0.849	0.546	0.518	0.556	0.61	–	–	–	–	–	0.409	0.576
SW 900	0.68	0.676	0.57	0.55	0.389	–	0.442	0.451	0.558	0.575	0.496	0.517	0.436	–	–	–	–	–	0.597	0.546
IA-LM	–	–	–	–	–	–	–	–	–	–	–	–	–	–	0.654	0.898	0.615	0.115	–	–
NCI-H2009	–	–	–	–	0.372	0.333	0.41	0.417	0.328	0.242	0.166	0.216	0.202	0.978	1.12	1.04	0.87	0.885	–	0.223
NCI-H1703	0.117	–	0.119	0.119	–	–	–	–	–	–	–	–	–	0.447	0.59	0.384	0.365	0.241	0.113	–
NCI-H520	–	–	–	–	0.468	0.607	0.536	0.511	0.359	0.231	0.113	0.167	0.163	0.691	0.959	0.613	0.486	0.406	–	0.223
NCI-H1563	–	–	–	–	–	–	–	–	–	–	–	–	–	0.874	0.896	0.954	0.802	0.777	–	–
NCI-H1648	0.676	–	–	0.843	–	–	0.514	0.562	0.429	0.293	–	–	0.3	–	–	–	–	–	0.925	0.358
